Where “and” joins values, the source holds several entries; their conditions need not be identical. Equal entries are not always repeated. Entries after “also recorded” stand apart in the source; their conditions may differ. Where two headings read alike, the source gives them in different places. Some results are limits rather than exact numbers.

Data on four molecules can be found in article PMC10108347, “Heterobifunctional Ligase Recruiters Enable pan-Degradation of Inhibitor of Apoptosis Proteins” (Journal of Medicinal Chemistry, 2023).

One data set addresses XIAP (Homo sapiens, UniProt P98170). Briefly: Immunoblotting (western blot) quantification of XIAP levels in MM.1S cells. The arrangement: Dmax: dose or concentration left out as unconfirmed. (Immunoblotting shows a protein as a band on a membrane.)
For a further data set, the target named is T1, cIAP1 (BIRC2) (Homo sapiens, UniProt Q13490).
T1 construct: endogenous in cells; host or cells: MM.1S
T1 sequence (Q13490 whole entry): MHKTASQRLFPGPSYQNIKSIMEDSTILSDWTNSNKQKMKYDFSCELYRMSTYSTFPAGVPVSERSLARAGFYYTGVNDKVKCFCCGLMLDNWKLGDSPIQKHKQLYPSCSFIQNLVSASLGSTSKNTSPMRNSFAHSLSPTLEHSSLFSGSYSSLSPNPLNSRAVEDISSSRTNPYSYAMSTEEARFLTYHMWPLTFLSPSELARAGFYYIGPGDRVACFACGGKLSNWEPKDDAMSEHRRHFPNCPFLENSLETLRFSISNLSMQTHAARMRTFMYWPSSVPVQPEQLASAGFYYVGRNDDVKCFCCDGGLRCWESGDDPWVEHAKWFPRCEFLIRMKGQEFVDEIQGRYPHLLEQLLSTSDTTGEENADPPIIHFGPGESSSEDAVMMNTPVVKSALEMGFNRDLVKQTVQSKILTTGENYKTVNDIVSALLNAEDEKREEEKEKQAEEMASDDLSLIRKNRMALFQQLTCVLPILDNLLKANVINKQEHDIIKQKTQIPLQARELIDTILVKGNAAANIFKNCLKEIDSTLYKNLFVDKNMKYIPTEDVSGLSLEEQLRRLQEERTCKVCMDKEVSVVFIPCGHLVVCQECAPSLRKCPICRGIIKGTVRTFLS
As to the kind of experiment: diaPASEF quantitative proteomics in MM.1S cells: cIAP1 (BIRC2). The class given is cell-based. The conditions noted are these: 3 h; for cIAP1 level in global proteomics (in words): 100 nM, diaPASEF. The procedure: To analyze the proteome-wide degradation selectivity of hetero-PROTACs 9, 25, and 27, a diaPASEF-based mass spectrometry approach was employed.[54] MM.1S cells were treated with 100 nM PROTACs for 3 h. […] Accordingly, global proteomic plots show the mathematically imputed levels of IAP proteins in treatment groups if the corresponding IAP was detected in the control treatment (see also Experimental Section).
MM1s cells were treated with DMSO or 0.1 μM of compound for 3 h. The cells were harvested by centrifugation and washed with phosphate-buffered saline before snap-freezing in liquid nitrogen. The cells were lysed by addition of lysis buffer (8 M urea, 50 mM NaCl, 50 mM 4-(2-hydroxyethyl)-1-piperazine-ethanesulfonic acid (EPPS) pH 8.5, protease, and phosphatase inhibitors) and homogenization by bead beating (BioSpec) for three repeats of 30 s at 2400. Bradford assay was used to determine the final protein concentration in the clarified cell lysate. 50 μg of protein for each sample was reduced, alkylated, and precipitated using methanol/chloroform as previously described,[64] and the resulting washed precipitated protein was allowed to air dry. The precipitated protein was resuspended in 4 M urea, 50 mM HEPES pH 7.4, followed by dilution to 1 M urea with the addition of 200 mM EPPS, pH 8. Proteins were first digested with LysC (1:50; enzyme/protein) for 12 h at RT. The LysC digestion was diluted to 0.5 M urea with 200 mM EPPS pH 8, followed by digestion with trypsin (1:50; enzyme/protein) for 6 h at 37 °C. Sample digests were acidified with formic acid to a pH of 2–3 prior to desalting using C18 solid-phase extraction plates (SOLA, Thermo Fisher Scientific). Desalted peptides were dried in a vacuum centrifuge and reconstituted in 0.1% formic acid for LC–MS analysis.
Data were collected using a TimsTOF Pro2 (Bruker Daltonics, Bremen, Germany) coupled to a nanoElute LC pump (Bruker Daltonics, Bremen, Germany) via a CaptiveSpray nanoelectrospray source. Peptides were separated on a reversed-phase C18 column (25 cm × 75 μm ID, 1.6 μM, IonOpticks, Australia) containing an integrated captive spray emitter. Peptides were separated using a 50 min gradient of 2–30% buffer B (acetonitrile in 0.1% formic acid) with a flow rate of 250 nL/min and column temperature maintained at 50 °C.
Data-Dependent Acquisition (DDA) was performed in the Parallel Accumulation-Serial Fragmentation (PASEF) mode to determine effective ion mobility windows for downstream diaPASEF data collection.[54] The diaPASEF parameters included 100% duty cycle using accumulation and ramp times of 50 ms each, 1 TIMS-MS scan, and 10 PASEF ramps per acquisition cycle. The TIMS-MS survey scan was acquired between 100–1700 m/z and 1/K0 of 0.7–1.3 V × s/cm^2. Precursors with 1–5 charges were selected, and those that reached an intensity threshold of 20,000 arbitrary units were actively excluded for 0.4 min. The quadrupole isolation width was set to 2 m/z for m/z < 700 and 3 m/z for m/z > 800, with the m/z between 700 and 800 m/z being interpolated linearly. The TIMS elution voltages were calibrated linearly with three points (Agilent ESI-L Tuning Mix Ions; 622, 922, 1222 m/z) to determine the reduced ion mobility coefficients (1/K0). To perform diaPASEF, the precursor distribution in the DDA m/z-ion mobility plane was used to design an acquisition scheme for DIA data collection, which included two windows in each 50 ms diaPASEF scan. […]

Data set [1] can be described thus: Log D7.4 measurement by chromatographic (fast-gradient HPLC) method. The conditions noted are these: pH 7.4.
Method: The system was calibrated by plotting the retention times of six different drugs (atenolol, metoprolol, labetalol, diltiazem, triphenylene, and permethrin) versus their literature-known log D7.4 in a calibration line (R^2 = 0.99). Subsequently, the mean retention times of the analytes were taken to calculate their log D7.4 values with the aid of the calibration line. At least two independent measurements of each analyte were performed.
Data set [2] deals with IAPs (cIAP1, cIAP2, XIAP). As to the kind of experiment: Immunoblotting of IAPs in MM.1S cells, overall degradation profile, time course and washout. The class given is cell-based. Particulars: for IAP degradation profile (in words): 16 h, western blot, concentration (10 nM to 1 μM); for time to complete degradation of cIAP1, cIAP2 and XIAP: 0.1 μM, time course. The procedure:
Next, we examined the persistence of IAP degradation in MM.1S cells after a single exposure to 1 μM of 9 and subsequent removal of the compound. […] The reliance on CRL2^VHL was assessed with a neddylation inhibitor MLN4924, which blocks the activity of CRLs (Figure S13A).

The mark [3] stands for this setting: MM1.S, 16 h, read-out: %remaining protein XIAP, MM.1S cells, 16 h treatment at 0.1 μM, normalized to loading control and DMSO.

Sequence of XIAP (P98170 whole entry): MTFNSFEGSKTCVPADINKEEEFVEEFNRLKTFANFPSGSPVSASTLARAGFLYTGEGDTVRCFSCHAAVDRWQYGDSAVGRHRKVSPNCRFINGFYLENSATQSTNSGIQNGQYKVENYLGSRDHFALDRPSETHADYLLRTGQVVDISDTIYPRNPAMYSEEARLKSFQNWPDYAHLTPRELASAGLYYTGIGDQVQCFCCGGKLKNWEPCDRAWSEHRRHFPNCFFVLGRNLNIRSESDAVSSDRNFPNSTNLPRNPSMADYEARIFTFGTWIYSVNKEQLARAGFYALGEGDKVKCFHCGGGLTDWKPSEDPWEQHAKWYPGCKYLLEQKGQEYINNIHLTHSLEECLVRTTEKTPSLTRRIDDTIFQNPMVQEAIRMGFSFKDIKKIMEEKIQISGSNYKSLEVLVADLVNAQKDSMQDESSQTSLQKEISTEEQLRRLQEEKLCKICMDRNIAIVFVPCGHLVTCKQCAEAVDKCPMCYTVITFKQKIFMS

As usually defined, the chromatographic logD is a lipophilicity value derived from retention on a column. Take `CN[C@@H](C)C(=O)N[C@@H](C(=O)N1CCC[C@H]1C(=O)N[C@@H]1c2ccccc2C[C@@H]1OCC#CC#CCO[C@H]1Cc2ccccc2[C@H]1NC(=O)[C@@H]1CCCN1C(=O)[C@H](NC(=O)[C@H](C)NC)C1CCCCC1)C1CCCCC1` [AZD5582, reference compound]: at XIAP (MM.1S cells, 16 h, western blot, 0.1 or 1 μM), the “XIAP degradation (in words)” value is given as “failed to degrade XIAP; also recorded: did not influence XIAP levels even at 1 μM”. Also, at cIAP1 (BIRC2), the “cIAP1 level in global proteomics (in words)” value (“cIAP1 level” below) is given as “depleted cIAP1 below the detection level”. The same molecule came in with a chromatographic logD in data set [1] of 4.1. In addition, the “IAP degradation profile (in words)” value in data set [2] is recorded as “potent cIAP autodegradation”.
The term Dmax denotes the largest share of the target that was removed. As for `CN[C@@H](C)C(=O)N[C@H](C(=O)N1C[C@@H](Oc2cccc(OCCCCC(=O)N[C@H](C(=O)N3C[C@H](O)C[C@H]3C(=O)N[C@@H](C)c3ccc(-c4scnc4C)cc3)C(C)(C)C)c2)C[C@H]1C(=O)N[C@@H]1CCCc2ccccc21)C1CCCCC1` [PROTAC 9, (2S,4S)-1-((S)-2-Cyclohexyl-2-((S)-2-(methylamino)propanamido)acetyl)-4-(3-((5-(((S)-1-((2S,4R)-4-hydroxy-2-(((S)-1-(4-(4-methylthiazol-5-yl)phenyl)ethyl)carbamoyl)pyrrolidin-1-yl)-3,3-dimethyl-1-oxobutan-2-yl)amino)-5-oxopentyl)oxy)phenoxy)-N-((R)-1,2,3,4-tetrahydronaphthalen-1-yl)pyrrolidine-2-carboxamide], the remaining activity at 0.1 µM at XIAP (setting [3]) amounted to 7%. Also, the Dmax on XIAP (MM1.S, read-out: Dmax XIAP (maximum degradation), MM.1S cells, 16 h) is 99%. Moreover, at XIAP (MM.1S cells, 16 h, at 0.1 μM), the “Dmax XIAP (maximum degradation)” value is given as more than 99%. Besides, the DC50 on XIAP (read-out: DC50,16h XIAP, MM.1S cells, 16 h, densitometric quantification of western blots, n = 4) was found to be 0.7 nM. In addition, the “cIAP1 level” value on cIAP1 (BIRC2) is “below the detection level”. Further, in data set [2], the “time to complete degradation of cIAP1, cIAP2 and XIAP” value is not above 3 h; the “IAP degradation profile (in words)” value is “induces cIAP1, cIAP2, XIAP, and VHL30 degradation in a dose-dependent manner”. In addition, in data set [2] (single exposure to 1 μM for 16 h, then compound removal), the “persistence of IAP degradation after washout (in words)” value was “nearly full and stable pan-degradation of IAPs up to 72 h”.
On to `CN[C@@H](C)C(=O)N[C@H](C(=O)N1C[C@@H](Oc2cccc(OCCOCCCCCCOCCCCCCNc3cccc4c3C(=O)N(C3CCC(=O)NC3=O)C4=O)c2)C[C@H]1C(=O)N[C@@H]1CCCc2ccccc21)C1CCCCC1` (stereo partly drawn) [PROTAC 25, (2S,4S)-1-((S)-2-Cyclohexyl-2-((S)-2-(methylamino)propanamido)acetyl)-4-(3-(2-((6-((6-((2-(2,6-dioxopiperidin-3-yl)-1,3-dioxoisoindolin-4-yl)amino)hexyl)oxy)hexyl)oxy)ethoxy)phenoxy)-N-((R)-1,2,3,4-tetrahydronaphthalen-1-yl)pyrrolidine-2-carboxamide], for which the remaining activity at 0.1 µM at XIAP (MM1.S, 16 h, read-out: %remaining protein XIAP) was found to be 2%. In addition, the “logFC BIRC2” value at cIAP1 (BIRC2) (0.1 μM, log2 fold change compound vs CTRLs (limma)) is given as -2.352. In addition, the “cIAP1 level” value on cIAP1 (BIRC2) was “below the detection level”. For the same molecule, in data set [1], the chromatographic logD is 6. For the same molecule, in data set [2], the “time to complete degradation of cIAP1, cIAP2 and XIAP” value is recorded as not above 3 h; the “IAP degradation profile (in words)” value is “pronounced pan-IAP depletion and Complete cIAP1 and XIAP depletion occurred already at 10 nM and 0.1 μM concentration was needed for the complete depletion of all IAPs”.
With `CN[C@@H](C)C(=O)N[C@H](C(=O)N1C[C@@H](Oc2cccc(OCCCCCCOCCCCCCOCCCCCCNc3cccc4c3C(=O)N(C3CCC(=O)NC3=O)C4=O)c2)C[C@H]1C(=O)N[C@@H]1CCCc2ccccc21)C1CCCCC1` (stereo partly drawn) [PROTAC 27, (2S,4S)-1-((S)-2-Cyclohexyl-2-((S)-2-(methylamino)propanamido)acetyl)-4-(3-((6-((6-((6-((2-(2,6-dioxopiperidin-3-yl)-1,3-dioxoisoindolin-4-yl)amino)hexyl)oxy)hexyl)oxy)hexyl)oxy)phenoxy)-N-((R)-1,2,3,4-tetrahydronaphthalen-1-yl)pyrrolidine-2-carboxamide], on XIAP (setting [3]), the remaining activity at 0.1 µM came to 8%. At cIAP1 (BIRC2), the “cIAP1 level” value is recorded as “no impact”. The same molecule came in with a chromatographic logD in data set [1] of 7.2. The “IAP degradation profile (in words)” value in data set [2] is given as “isoform-selective XIAP degradation”.
